Source: patent US12404260B2, “Pyridine rings containing derivatives as MALT1 inhibitors” (Janssen Pharmaceutica NV, priority 2019, dated 2025)

tested on: secretion of IL10 by OCI-LY3 ABC-DLBCL cells; test: Human IL10 Mesoscale assay (OCI-LY3); assay type: cell-based; conditions: 24 h incubation, IL10 in supernatant
Method: (§1) NFKB signaling regulates the secretion of multiple cytokines, including IL6 and IL10. Secretion of the cytokines IL6 and IL10 by OCI-LY3 ABC-DLBCL cells was measured using a mesoscale assay. Inhibition of NFKB signaling by MALT1 inhibitors results in a decrease of IL6/10 secretion.
(§2) OCI-LY3 cells were propagated in RPMI-1640 (Sigma Aldrich) supplemented with 10% fetal bovine serum (HyClone), 1 mM sodium pyruvate (Invitrogen), 2 mM L-glutamine (Sigma Aldrich) and 1% PenStrep (Sigma Aldrich). Cell passage number should not exceed 30. Cells should be kept between 0.5-2.5 million cells per mL during culturing and cells should be supplemented every 2-3 days with fresh 50 μM beta-mercaptoethanol. No beta-mercaptoethanol was used during the mesoscale assay.
(§3) For the Mesoscale assay, 100,000 OCI-LY3 cells were seeded per well into black-colored 96-well plates with clear bottom (Corning #3904) and test compounds were added in 9 dilution steps (1:2) ranging from 15 μM to 58.6 nM (final DMSO concentration 0.3%). DMSO control wells were used to determine the maximum signal (High Control (HC)). Treatment with the BTK inhibitor RN486 in a dose range from 30 nM to […] (9 dilutions of 1:2) served as a positive control for NFKB pathway inhibition and was used to determine the maximum inhibition (Low Control (LC)). Compounds and cells were incubated for 24 h at 37° C. and 5% CO2 (assay volume is 150 μL). After 24 h of incubation 50 μL of the supernatant was transferred to a MSD plate (V-Plex Proinflammation Panel 1 (human) kit, Mesoscale (MSD)) and incubated for 2 h with vigorous shaking (600 rpm) at room temperature. Following incubation, plates were washed 3× with PBS+0.05% Tween-20 and 25 μL detection antibody solution (IL6 & IL10 antibodies in diluent 3 (MSD)) was added per well followed by 2 h of incubation with vigorous shaking (600 rpm) at room temperature. After 3× washes with PBS+0.05% Tween-20, plates were incubated with 150 μL 2× Read Buffer T and read on SECTOR imager.

IC50	Compound
6030 nM	COc1ncc(NC(=O)Nc2cnc(C)c(Cl)c2[C@@H](C)OC)cc1C#N [Co. 77]
980 nM	COc1c(C)ncc(NC(=O)Nc2cnc(-n3nccn3)c(Cl)c2)c1[C@@H](C)OC [Co. 42]
50 nM	COc1nc(-n2nccn2)c(Cl)cc1NC(=O)Nc1cnc(C)c(Br)c1[C@@H](C)OC [Co. 85]
130 nM	CO[C@H](c1c(NC(=O)Nc2cnc(-n3nccn3)c(C(F)(F)F)c2)cnc(C)c1C#N)C1CC1 [Co. 122]
1660 nM	CCOC(=O)c1cncc(NC(=O)Nc2cnc(-n3nccn3)c(Cl)c2)c1[C@H](C)OC [Co. 37]
2570 nM	COc1ncc(NC(=O)Nc2cnc(C)c(Br)c2C(C)OC)cc1C#N (single isomer, unassigned) [Co. 98]
30 nM	CO[C@@H](C)c1c(NC(=O)Nc2cnc(OC(F)F)c(Cl)c2)cnc(C)c1C#N [Co. 70]
50 nM	CO[C@H](C)c1c(NC(=O)Nc2cnc(-n3nccn3)c(Cl)c2)cnc(C)c1Br [Co. 45]
1700 nM	COC(C)c1c(Br)c(C)nc(C)c1NC(=O)Nc1cnc(-n2nccn2)c(Cl)c1 (racemic) [Co. 49]
110 nM	COc1cncc(NC(=O)Nc2cnc(-n3nccn3)c(C(F)(F)F)c2)c1[C@@H](C)OC [Co. 124]
> 15000 nM	COc1c(C)ncc(NC(=O)Nc2cnc(-n3nccn3)c(Cl)c2)c1[C@H](C)OC [Co. 43]
710 nM	CO[C@H](C)c1c(NC(=O)Nc2cnc(C3CC3)c(C(F)(F)F)c2)cnc(C)c1Br [Co. 52]
90 nM	COc1ncc(NC(=O)Nc2cnc(C)c(Br)c2[C@H](C)OC)cc1C#N [Co. 97]
60 nM	CO[C@@H](C)c1c(NC(=O)Nc2cnc(-n3nccn3)c(Cl)c2)cnc(C)c1Cl [Co. 105]

target: T1, full-length MALT1 protein (Strep-MALT1(1-824)-His) (Homo sapiens, UniProt Q9UDY8); test: MALT1 Biochemical Protease Assay; conditions: 10 nM FL MALT1, 200 μM Ac-LRSR-AMC, 50 min pre-incubation, 4 h at RT; read-out: MALT1_Biochemical activity (Ac-LRSR-amc) IC50
T1 construct: full-length MALT1 protein (Strep-MALT1(1-824)-His) purified from baculovirus-infected insect cells; Strep (N); His (C); made in house; host or cells: baculovirus-infected insect cells
T1 sequence (Q9UDY8 1-824): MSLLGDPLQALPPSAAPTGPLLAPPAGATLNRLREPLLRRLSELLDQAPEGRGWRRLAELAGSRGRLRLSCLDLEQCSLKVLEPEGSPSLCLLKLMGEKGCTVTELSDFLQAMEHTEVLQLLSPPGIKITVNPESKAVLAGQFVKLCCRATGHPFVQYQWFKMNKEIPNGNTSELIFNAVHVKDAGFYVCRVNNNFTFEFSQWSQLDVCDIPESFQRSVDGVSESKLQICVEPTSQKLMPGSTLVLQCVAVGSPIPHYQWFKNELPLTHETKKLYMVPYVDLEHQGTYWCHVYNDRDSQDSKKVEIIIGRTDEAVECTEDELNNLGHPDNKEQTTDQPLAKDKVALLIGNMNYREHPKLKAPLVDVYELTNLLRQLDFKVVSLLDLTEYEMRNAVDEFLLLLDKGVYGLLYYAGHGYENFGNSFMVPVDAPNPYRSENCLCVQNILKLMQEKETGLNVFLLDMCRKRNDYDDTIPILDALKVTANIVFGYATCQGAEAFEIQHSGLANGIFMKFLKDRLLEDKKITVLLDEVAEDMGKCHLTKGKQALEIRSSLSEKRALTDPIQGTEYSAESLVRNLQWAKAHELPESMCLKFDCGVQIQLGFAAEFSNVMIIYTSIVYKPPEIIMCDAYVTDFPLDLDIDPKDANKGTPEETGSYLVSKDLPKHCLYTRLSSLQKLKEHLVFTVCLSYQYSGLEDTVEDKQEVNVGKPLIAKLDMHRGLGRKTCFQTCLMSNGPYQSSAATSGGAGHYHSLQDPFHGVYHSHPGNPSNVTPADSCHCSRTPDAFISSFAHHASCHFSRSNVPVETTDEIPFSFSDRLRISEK
Method: MALT1 protease activity was assessed in an in vitro assay using a tetrapeptide as substrate and full-length MALT1 protein (Strep-MALT1(1-824)-His) purified from baculovirus-infected insect cells. The tetrapeptide LRSR is coupled to AMC (7-amino-4-methylcoumarin) and provides a quenched, fluorescent substrate for the MALT1 protease (SM Biochemicals). Cleavage of AMC from the Arginine residue results in an increase in coumarin fluorescence measured at 460 nm (excitation 355 nm). The final assay buffer consisted of 10 nM FL MALT1 protein, 200 μM Ac-LRSR-AMC, 50 mM Tris pH 7.5, 0.6 M Citrate, 1 mM DTT, 1 mM EDTA, 0.05% BSA and 1.5% DMSO. Test compounds were spotted at 50 nL in 100% DMSO per well of a black 384-Proxiplate (Perkin Elmer). Test compound concentrations ranged from 30 μM to 0.5 nM using 11 dilution steps (1:3). Background signal was measured from control wells containing assay buffer without enzyme which functions as low control (LC). High control (HC) values were generated using the reaction with enzyme but no compound treatment. Compounds were pre-incubated with MALT1 enzyme for 50 minutes at RT. Substrate was added subsequently and fluorescence was measured in Labsystems fluoroskan at excitation 355 nm and emission 460 nm to determine time 0. The reaction was subsequently incubated for 4 h at RT and fluorescence was measured. For IC50 calculations, timepoint 0 was subtracted from the 4 h timepoint to correct for any potential autofluorescence of the compounds. The enzyme reaction was linear during the 4 h incubation period. Characterization of the substrate Ac-LRSR-AMC determined the Michaelis constant KM at 200 μM.
IC50 values were calculated using the following formula (Z prime should be >0.5): […]
A best-fit curve was fitted by a minimum sum of squares method to the plot of % Controlmin vs. compound concentration. From this an IC50 value (inhibitory concentration causing 50% inhibition) can be obtained. An estimate of the slope of the plot in terms of the Hill coefficient was also obtained.
Used in “Lexis Dose Response Curve Fitting” Version 1.0.

IC50	Compound
8320 nM	COc1ncc(NC(=O)Nc2cnc(C)c(Cl)c2[C@@H](C)OC)cc1C#N [Co. 77]
540 nM	COc1c(C)ncc(NC(=O)Nc2cnc(-n3nccn3)c(Cl)c2)c1[C@@H](C)OC [Co. 42]
30 nM	COc1nc(-n2nccn2)c(Cl)cc1NC(=O)Nc1cnc(C)c(Br)c1[C@@H](C)OC [Co. 85]
60 nM	CO[C@H](c1c(NC(=O)Nc2cnc(-n3nccn3)c(C(F)(F)F)c2)cnc(C)c1C#N)C1CC1 [Co. 122]
1480 nM	CCOC(=O)c1cncc(NC(=O)Nc2cnc(-n3nccn3)c(Cl)c2)c1[C@H](C)OC [Co. 37]
5890 nM	COc1ncc(NC(=O)Nc2cnc(C)c(Br)c2C(C)OC)cc1C#N (single isomer, unassigned) [Co. 98]
50 nM	CO[C@@H](C)c1c(NC(=O)Nc2cnc(OC(F)F)c(Cl)c2)cnc(C)c1C#N [Co. 70]
20 nM	CO[C@H](C)c1c(NC(=O)Nc2cnc(-n3nccn3)c(Cl)c2)cnc(C)c1Br [Co. 45]
620 nM	COC(C)c1c(Br)c(C)nc(C)c1NC(=O)Nc1cnc(-n2nccn2)c(Cl)c1 (racemic) [Co. 49]
80 nM	COc1cncc(NC(=O)Nc2cnc(-n3nccn3)c(C(F)(F)F)c2)c1[C@@H](C)OC [Co. 124]
12000 nM	COc1c(C)ncc(NC(=O)Nc2cnc(-n3nccn3)c(Cl)c2)c1[C@H](C)OC [Co. 43]
1020 nM	CO[C@H](C)c1c(NC(=O)Nc2cnc(C3CC3)c(C(F)(F)F)c2)cnc(C)c1Br [Co. 52]
80 nM	COc1ncc(NC(=O)Nc2cnc(C)c(Br)c2[C@H](C)OC)cc1C#N [Co. 97]
40 nM	CO[C@@H](C)c1c(NC(=O)Nc2cnc(-n3nccn3)c(Cl)c2)cnc(C)c1Cl [Co. 105]

tested on: secretion of IL6 by OCI-LY3 ABC-DLBCL cells; test: Human IL6 Mesoscale assay (OCI-LY3); assay type: cell-based; conditions: 24 h incubation, IL6 in supernatant
Method: as §1, §2, §3

IC50	Compound
7590 nM	COc1ncc(NC(=O)Nc2cnc(C)c(Cl)c2[C@@H](C)OC)cc1C#N [Co. 77]
1100 nM	COc1c(C)ncc(NC(=O)Nc2cnc(-n3nccn3)c(Cl)c2)c1[C@@H](C)OC [Co. 42]
100 nM	COc1nc(-n2nccn2)c(Cl)cc1NC(=O)Nc1cnc(C)c(Br)c1[C@@H](C)OC [Co. 85]
140 nM	CO[C@H](c1c(NC(=O)Nc2cnc(-n3nccn3)c(C(F)(F)F)c2)cnc(C)c1C#N)C1CC1 [Co. 122]
2750 nM	CCOC(=O)c1cncc(NC(=O)Nc2cnc(-n3nccn3)c(Cl)c2)c1[C@H](C)OC [Co. 37]
5750 nM	COc1ncc(NC(=O)Nc2cnc(C)c(Br)c2C(C)OC)cc1C#N (single isomer, unassigned) [Co. 98]
60 nM	CO[C@@H](C)c1c(NC(=O)Nc2cnc(OC(F)F)c(Cl)c2)cnc(C)c1C#N [Co. 70]
60 nM	CO[C@H](C)c1c(NC(=O)Nc2cnc(-n3nccn3)c(Cl)c2)cnc(C)c1Br [Co. 45]
2340 nM	COC(C)c1c(Br)c(C)nc(C)c1NC(=O)Nc1cnc(-n2nccn2)c(Cl)c1 (racemic) [Co. 49]
150 nM	COc1cncc(NC(=O)Nc2cnc(-n3nccn3)c(C(F)(F)F)c2)c1[C@@H](C)OC [Co. 124]
> 15000 nM	COc1c(C)ncc(NC(=O)Nc2cnc(-n3nccn3)c(Cl)c2)c1[C@H](C)OC [Co. 43]
1450 nM	CO[C@H](C)c1c(NC(=O)Nc2cnc(C3CC3)c(C(F)(F)F)c2)cnc(C)c1Br [Co. 52]
140 nM	COc1ncc(NC(=O)Nc2cnc(C)c(Br)c2[C@H](C)OC)cc1C#N [Co. 97]
120 nM	CO[C@@H](C)c1c(NC(=O)Nc2cnc(-n3nccn3)c(Cl)c2)cnc(C)c1Cl [Co. 105]
